Test results published in PubChem BioAssay AID1963436 (Molecular Pharmacology Branch, DTP, NCI, 2024).

System: OVCAR-5 complex spheroid (HUVEC/MSC), viability % T/C
Experiment: Anticancer human tumor OVCAR-5 cell line growth inhibition [Asc];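 also: spheroids exposed to agents for 7 days before readout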;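 as to viability, T/C: 100% = DMSO vehicle-treated wells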
Conditions: for IC50: curve of first compound; for viability, T/C: stronger effect = lower value
Procedure, shortened: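 Tumor cells were grown as complex spheroids with human endothelial cells (HUVEC) and human mesenchymal stem cells as stroma. Agents were tested alone and in combination, in half-log steps down from the clinical Cmax, or from 10 microM where Cmax was unknown.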

[1] = second compound 0.01 µM, first compound 0.0316 µM
[2] = second compound 0.01 µM, first compound 0.1 µM
[3] = second compound 0.01 µM, first compound 0.316 µM
[4] = second compound 0.01 µM, first compound 1 µM
[5] = second compound 0.0316 µM, first compound 0.0316 µM
[6] = second compound 0.0316 µM, first compound 0.1 µM
[7] = second compound 0.0316 µM, first compound 0.316 µM
[8] = second compound 0.0316 µM, first compound 1 µM
[9] = second compound 0.1 µM, first compound 0.0316 µM
[10] = second compound 0.1 µM, first compound 0.1 µM
[11] = second compound 0.1 µM, first compound 0.316 µM
[12] = second compound 0.1 µM, first compound 1 µM
[13] = second compound 0.316 µM, first compound 0.0316 µM
[14] = second compound 0.316 µM, first compound 0.1 µM
[15] = second compound 0.316 µM, first compound 0.316 µM
[16] = second compound 0.316 µM, first compound 1 µM
[17] = second compound 1 µM, first compound 0.0316 µM
[18] = second compound 1 µM, first compound 0.1 µM
[19] = second compound 1 µM, first compound 0.316 µM
[20] = second compound 1 µM, first compound 1 µM
[21] = second compound 0.01 µM, first compound 0.00316 µM
[22] = second compound 0.01 µM, first compound 0.01 µM
[23] = second compound 0.0316 µM, first compound 0.00316 µM
[24] = second compound 0.0316 µM, first compound 0.01 µM
[25] = second compound 0.1 µM, first compound 0.00316 µM
[26] = second compound 0.1 µM, first compound 0.01 µM
[27] = second compound 0.316 µM, first compound 0.00316 µM
[28] = second compound 0.316 µM, first compound 0.01 µM
[29] = second compound 1 µM, first compound 0.00316 µM
[30] = second compound 1 µM, first compound 0.01 µM

With C=CC(=O)N1CCN(c2nc(=O)n(-c3c(C)ccnc3C(C)C)c3nc(-c4c(O)cccc4F)c(F)cc23)C(C)C1 (stereo not given) + CNC(C)C(=O)NC1CN(S(=O)(=O)c2cccc(S(=O)(=O)N3CCC4CCC(C(=O)NC(c5ccccc5)c5ccccc5)N4C(=O)C(NC(=O)C(C)NC)C3)c2)CCC2CCC(C(=O)NC(c3ccccc3)c3ccccc3)N2C1=O the IC50 (second compound 0.01 µM) was over 10000 nM, the IC50 (second compound 0.0316 µM) was over 10000 nM and the IC50 (second compound 0.1 µM) was over 10000 nM. It also gave an IC50 (second compound 0.316 µM) of over 10000 nM, an IC50 (second compound 1 µM) of over 10000 nM and a viability, T/C [1] of 88.4%. For the same compound, the viability, T/C [2] was 89.9%, the viability, T/C [3] was 85.9% and the viability, T/C [4] was 100%. The viability, T/C (second compound 0.01 µM, first compound 3.16 µM) was 115%, the viability, T/C (second compound 0.01 µM, first compound 10 µM) was 105% and the viability, T/C [5] was 74.4%. For the same compound, the viability, T/C [6] was 84.4%, the viability, T/C [7] was 83.3% and the viability, T/C [8] was 91.2%. For the same compound, the viability, T/C (second compound 0.0316 µM, first compound 3.16 µM) was 106%, the viability, T/C (second compound 0.0316 µM, first compound 10 µM) was 104% and the viability, T/C [9] was 76.3%. The viability, T/C [10] was 87%, the viability, T/C [11] was 90.6% and the viability, T/C [12] was 88.2%. It also gave a viability, T/C (second compound 0.1 µM, first compound 3.16 µM) of 109%, a viability, T/C (second compound 0.1 µM, first compound 10 µM) of 103% and a viability, T/C [13] of 76.4%. It also gave a viability, T/C [14] of 83.5%, a viability, T/C [15] of 84.9% and a viability, T/C [16] of 90.4%. It also gave a viability, T/C (second compound 0.316 µM, first compound 3.16 µM) of 104%, a viability, T/C (second compound 0.316 µM, first compound 10 µM) of 109% and a viability, T/C [17] of 92.9%. The viability, T/C [18] was 100%, the viability, T/C [19] was 90.4% and the viability, T/C [20] was 96.7%. For the same compound, the viability, T/C (second compound 1 µM, first compound 3.16 µM) was 103% and the viability, T/C (second compound 1 µM, first compound 10 µM) was 102%.
With CCN1C(C(=O)NC23CCC(C(=O)O)(CC2)CC3)C(c2cccc(Cl)c2F)C2(C(=O)Nc3cc(Cl)ccc32)C12CCCCC2 (stereo not given) + CNC(C)C(=O)NC1CN(S(=O)(=O)c2cccc(S(=O)(=O)N3CCC4CCC(C(=O)NC(c5ccccc5)c5ccccc5)N4C(=O)C(NC(=O)C(C)NC)C3)c2)CCC2CCC(C(=O)NC(c3ccccc3)c3ccccc3)N2C1=O the IC50 (second compound 0.01 µM) was over 3000 nM, the IC50 (second compound 0.0316 µM) was over 3000 nM and the IC50 (second compound 0.1 µM) was over 3000 nM. For the same compound, the IC50 (second compound 0.316 µM) was over 3000 nM, the IC50 (second compound 1 µM) was over 3000 nM and the viability, T/C (second compound 0.01 µM, first compound 0.00949 µM) was 92.6%. It also gave a viability, T/C (second compound 0.01 µM, first compound 0.03 µM) of 96.2%, a viability, T/C (second compound 0.01 µM, first compound 0.0949 µM) of 94.8% and a viability, T/C (second compound 0.01 µM, first compound 0.3 µM) of 98%. The viability, T/C (second compound 0.01 µM, first compound 0.949 µM) was 106%, the viability, T/C (second compound 0.01 µM, first compound 3 µM) was 101% and the viability, T/C (second compound 0.0316 µM, first compound 0.00949 µM) was 84.8%. For the same compound, the viability, T/C (second compound 0.0316 µM, first compound 0.03 µM) was 89%, the viability, T/C (second compound 0.0316 µM, first compound 0.0949 µM) was 80.7% and the viability, T/C (second compound 0.0316 µM, first compound 0.3 µM) was 84.8%. The viability, T/C (second compound 0.0316 µM, first compound 0.949 µM) was 83.4%, the viability, T/C (second compound 0.0316 µM, first compound 3 µM) was 93.8% and the viability, T/C (second compound 0.1 µM, first compound 0.00949 µM) was 88.6%. The viability, T/C (second compound 0.1 µM, first compound 0.03 µM) was 87.9%, the viability, T/C (second compound 0.1 µM, first compound 0.0949 µM) was 88.6% and the viability, T/C (second compound 0.1 µM, first compound 0.3 µM) was 84.8%. It also gave a viability, T/C (second compound 0.1 µM, first compound 0.949 µM) of 90.7%, a viability, T/C (second compound 0.1 µM, first compound 3 µM) of 86.7% and a viability, T/C (second compound 0.316 µM, first compound 0.00949 µM) of 84.4%. The viability, T/C (second compound 0.316 µM, first compound 0.03 µM) was 85%, the viability, T/C (second compound 0.316 µM, first compound 0.0949 µM) was 79% and the viability, T/C (second compound 0.316 µM, first compound 0.3 µM) was 84.2%. It also gave a viability, T/C (second compound 0.316 µM, first compound 0.949 µM) of 94.8%, a viability, T/C (second compound 0.316 µM, first compound 3 µM) of 89.6% and a viability, T/C (second compound 1 µM, first compound 0.00949 µM) of 97.2%. The viability, T/C (second compound 1 µM, first compound 0.03 µM) was 100%, the viability, T/C (second compound 1 µM, first compound 0.0949 µM) was 86.9% and the viability, T/C (second compound 1 µM, first compound 0.3 µM) was 86.9%. It also gave a viability, T/C (second compound 1 µM, first compound 0.949 µM) of 90.1% and a viability, T/C (second compound 1 µM, first compound 3 µM) of 85.2%.
In the case of COc1c(OCCCN2CCOCC2)ccc2c3n(c(=NC(=O)c4cnc(N)nc4)nc12)CCN3 + CNC(C)C(=O)NC1CN(S(=O)(=O)c2cccc(S(=O)(=O)N3CCC4CCC(C(=O)NC(c5ccccc5)c5ccccc5)N4C(=O)C(NC(=O)C(C)NC)C3)c2)CCC2CCC(C(=O)NC(c3ccccc3)c3ccccc3)N2C1=O, the IC50 (second compound 0.01 µM) is reported as 29.5 nM, the IC50 (second compound 0.0316 µM) is reported as 22.4 nM and the IC50 (second compound 0.1 µM) is reported as 19.5 nM. It also gave an IC50 (second compound 0.316 µM) of 18.7 nM, an IC50 (second compound 1 µM) of 17.6 nM and a viability, T/C [21] of 93.3%. For the same compound, the viability, T/C [22] was 67.4%, the viability, T/C [1] was 48% and the viability, T/C [2] was 35%. The viability, T/C [3] was 17.1%, the viability, T/C [4] was 8.86% and the viability, T/C [23] was 69.8%. It also gave a viability, T/C [24] of 63.6%, a viability, T/C [5] of 42.5% and a viability, T/C [6] of 30.2%. For the same compound, the viability, T/C [7] was 17.6%, the viability, T/C [8] was 7.75% and the viability, T/C [25] was 68%. The viability, T/C [26] was 61.5%, the viability, T/C [9] was 41.5% and the viability, T/C [10] was 26.3%. For the same compound, the viability, T/C [11] was 15.9%, the viability, T/C [12] was 7.03% and the viability, T/C [27] was 67.1%. The viability, T/C [28] was 59.9%, the viability, T/C [13] was 41.7% and the viability, T/C [14] was 25.3%. The viability, T/C [15] was 13.1%, the viability, T/C [16] was 6.27% and the viability, T/C [29] was 82.9%. For the same compound, the viability, T/C [30] was 56.1%, the viability, T/C [17] was 42.1% and the viability, T/C [18] was 27.1%. For the same compound, the viability, T/C [19] was 12.3% and the viability, T/C [20] was 6.51%.
In the case of NC1CCC(NC2CC2c2ccccc2)CC1 (stereo not given) + CNC(C)C(=O)NC1CN(S(=O)(=O)c2cccc(S(=O)(=O)N3CCC4CCC(C(=O)NC(c5ccccc5)c5ccccc5)N4C(=O)C(NC(=O)C(C)NC)C3)c2)CCC2CCC(C(=O)NC(c3ccccc3)c3ccccc3)N2C1=O, the IC50 (second compound 0.01 µM) is reported as over 100 nM, the IC50 (second compound 0.0316 µM) is reported as over 100 nM and the IC50 (second compound 0.1 µM) is reported as over 100 nM. The IC50 (second compound 0.316 µM) was over 100 nM, the IC50 (second compound 1 µM) was over 100 nM and the viability, T/C (second compound 0.01 µM, first compound 0.000316 µM) was 92.9%. The viability, T/C (second compound 0.01 µM, first compound 0.001 µM) was 89.8%, the viability, T/C [21] was 80.8% and the viability, T/C [22] was 84.8%. The viability, T/C [1] was 80.8%, the viability, T/C [2] was 79.9% and the viability, T/C (second compound 0.0316 µM, first compound 0.000316 µM) was 75.8%. For the same compound, the viability, T/C (second compound 0.0316 µM, first compound 0.001 µM) was 77.7%, the viability, T/C [23] was 75.6% and the viability, T/C [24] was 71.5%. For the same compound, the viability, T/C [5] was 69.1%, the viability, T/C [6] was 66.9% and the viability, T/C (second compound 0.1 µM, first compound 0.000316 µM) was 76.5%. It also gave a viability, T/C (second compound 0.1 µM, first compound 0.001 µM) of 70%, a viability, T/C [25] of 75.5% and a viability, T/C [26] of 67.3%. It also gave a viability, T/C [9] of 74.5%, a viability, T/C [10] of 71% and a viability, T/C (second compound 0.316 µM, first compound 0.000316 µM) of 66.1%. It also gave a viability, T/C (second compound 0.316 µM, first compound 0.001 µM) of 73%, a viability, T/C [27] of 66.2% and a viability, T/C [28] of 70.4%. It also gave a viability, T/C [13] of 75.1%, a viability, T/C [14] of 75.7% and a viability, T/C (second compound 1 µM, first compound 0.000316 µM) of 72.1%. It also gave a viability, T/C (second compound 1 µM, first compound 0.001 µM) of 74.1%, a viability, T/C [29] of 70.5% and a viability, T/C [30] of 72.4%. The viability, T/C [17] was 80.8% and the viability, T/C [18] was 78.1%.
